{
  "source": "ChEMBL document CHEMBL1201862",
  "about": "“PubChem BioAssay data set” (2004)",
  "type_in_all_cases": "functional",
  "key": {"Hexokinase": {"biological_target": "Hexokinase (Trypanosoma brucei, UniProt Q38C41)", "sequence (Q38C41 whole entry)": "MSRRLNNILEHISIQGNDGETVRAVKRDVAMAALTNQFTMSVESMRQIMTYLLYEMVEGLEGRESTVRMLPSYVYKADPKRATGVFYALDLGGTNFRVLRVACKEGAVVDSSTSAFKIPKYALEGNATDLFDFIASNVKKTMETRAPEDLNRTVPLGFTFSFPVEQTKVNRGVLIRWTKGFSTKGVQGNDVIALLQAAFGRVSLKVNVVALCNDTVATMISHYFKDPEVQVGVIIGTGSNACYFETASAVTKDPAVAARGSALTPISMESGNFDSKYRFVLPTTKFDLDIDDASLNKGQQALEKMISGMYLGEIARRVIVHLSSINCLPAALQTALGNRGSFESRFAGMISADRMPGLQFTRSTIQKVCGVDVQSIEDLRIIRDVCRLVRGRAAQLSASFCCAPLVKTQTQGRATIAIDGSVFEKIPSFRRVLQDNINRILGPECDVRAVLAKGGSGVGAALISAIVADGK", "assay": "Confirmation assay for inhibitors of Trypanosoma brucei hexokinase 1-Analogue-first series. [Related pubchem assays (depositor defined):AID1430, AID1632, AID2516, AID2560, AID2579, AID2600, AID449725, AID492951]"}, "[1]": {"biological_target": "T1, Tyrosine-protein phosphatase non-receptor type 7 (Homo sapiens, UniProt P35236)", "T1 sequence (P35236 whole entry)": "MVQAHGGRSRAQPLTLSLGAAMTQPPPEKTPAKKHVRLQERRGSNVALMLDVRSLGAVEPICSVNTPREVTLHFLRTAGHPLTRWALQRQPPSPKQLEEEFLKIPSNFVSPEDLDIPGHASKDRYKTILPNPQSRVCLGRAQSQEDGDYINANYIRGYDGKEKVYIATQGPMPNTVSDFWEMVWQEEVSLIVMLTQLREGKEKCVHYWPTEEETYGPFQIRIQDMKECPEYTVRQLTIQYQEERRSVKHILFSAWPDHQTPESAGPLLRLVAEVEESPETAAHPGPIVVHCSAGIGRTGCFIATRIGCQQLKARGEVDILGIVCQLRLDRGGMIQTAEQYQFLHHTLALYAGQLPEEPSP", "assay": "redox-dependent HePTP inhibition, mechanism study, biochemical, fluorescence (AID 2068)"}, "[2]": {"biological_target": "G-protein coupled receptor 55 (Homo sapiens, UniProt Q9Y2T6)", "sequence (Q9Y2T6 whole entry)": "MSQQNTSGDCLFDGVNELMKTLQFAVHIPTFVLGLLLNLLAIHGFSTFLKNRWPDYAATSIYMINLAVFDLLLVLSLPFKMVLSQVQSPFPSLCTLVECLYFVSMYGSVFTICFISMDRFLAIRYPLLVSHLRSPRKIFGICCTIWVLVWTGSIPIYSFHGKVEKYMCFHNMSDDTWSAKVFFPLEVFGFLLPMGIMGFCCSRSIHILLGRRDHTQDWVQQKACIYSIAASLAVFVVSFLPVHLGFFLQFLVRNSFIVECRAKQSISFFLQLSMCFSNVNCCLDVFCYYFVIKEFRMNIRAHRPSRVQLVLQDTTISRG", "assay": "GPR55 agonists via beta-arrestin recruitment, primary screen, imaging, U2OS cells, beta-arrestin-GFP redistribution (AID 1961)"}, "[3]": {"biological_target": "DNA dC->dU-editing enzyme APOBEC-3G (Homo sapiens, UniProt Q9HC16)", "sequence (Q9HC16 whole entry)": "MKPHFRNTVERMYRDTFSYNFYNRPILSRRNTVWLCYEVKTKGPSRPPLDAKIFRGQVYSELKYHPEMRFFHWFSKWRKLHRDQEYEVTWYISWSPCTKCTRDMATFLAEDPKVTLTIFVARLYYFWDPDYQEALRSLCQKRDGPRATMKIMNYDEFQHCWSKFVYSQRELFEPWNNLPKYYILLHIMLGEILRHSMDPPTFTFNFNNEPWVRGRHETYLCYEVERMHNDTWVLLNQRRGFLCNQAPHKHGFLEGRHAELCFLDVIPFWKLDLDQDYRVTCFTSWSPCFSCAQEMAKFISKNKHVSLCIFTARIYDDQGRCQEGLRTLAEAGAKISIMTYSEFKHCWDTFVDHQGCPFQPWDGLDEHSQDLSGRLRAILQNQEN", "assay": "Dose Response confirmation of small molecule APOBEC3G DNA Deaminase Inhibitors via a fluorescence-based single-stranded DNA deaminase assay. [Related pubchem assays (depositor defined):AID493012, AID493028]"}, "[4]": {"biological_target": "DNA dC->dU-editing enzyme APOBEC-3A (Homo sapiens, UniProt P31941)", "sequence (P31941 whole entry)": "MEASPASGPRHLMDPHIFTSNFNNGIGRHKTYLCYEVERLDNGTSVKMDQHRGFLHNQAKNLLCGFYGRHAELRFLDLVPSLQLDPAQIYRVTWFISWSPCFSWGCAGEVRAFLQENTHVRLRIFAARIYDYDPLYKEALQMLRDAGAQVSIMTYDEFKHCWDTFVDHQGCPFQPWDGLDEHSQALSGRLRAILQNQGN", "assay": "APOBEC3A DNA deaminase inhibitors, dose response, biochemical (AID 504722)"}},
  "note": "Activity calls are given as the source filed them.",
  "data": [
    {"smiles": "O=c1c2cc(Br)ccc2sn1-c1ccccc1", "values": [
      {"measurement": "IC50", "setting": "Hexokinase", "value": "> 25 µM (inactive)"}
    ]},
    {"smiles": "CCN(CC)C(=O)C1CCCN(C(=O)Nc2ccc3nc(-c4ccco4)c(-c4ccco4)nc3c2)C1", "note": "(stereo unspecified)", "values": [
      {"measurement": "IC50", "setting": "[1]", "value": "2.66 µM (active)"}
    ]},
    {"smiles": "CCCN(CCC)Cc1c(C(=O)N/N=C/c2c[nH]c3ccccc23)nnn1-c1nonc1N", "values": [
      {"measurement": "EC50", "setting": "[2]", "value": "0.905 µM (active)"}
    ]},
    {"smiles": "CC(/C=N/n1c(S)nnc1-c1cc(C)[nH]n1)=C\\c1ccco1", "values": [
      {"measurement": "IC50", "setting": "[3]", "value": "2.47 µM (active)"},
      {"measurement": "IC50", "setting": "[4]", "value": "> 100 µM (inactive)"}
    ]},
    {"smiles": "COc1ccc(C(=O)NCC(=O)O)cc1", "values": [
      {"measurement": "IC50", "setting": "Hexokinase", "value": "> 25 µM (inactive)"}
    ]}
  ]
}
